Patent US12298308B2, “Neoadjuvant chemotherapy induces breast cancer metastasis through a TMEM-mediated mechanism” (Albert Einstein College of Medicine, priority 2017, dated 2025)

What was measured:
[1] = tested on: TMEM; assay: TMEM score by triple-stain immunohistochemistry in mouse breast tumors; assay type: in vivo
Excerpt: This hypothesis was investigated in the following breast carcinoma models: (i) transgenic MMTV-PyMT mice bearing spontaneous breast tumors, (ii) FVB mice transplanted orthotopically with tumors from MMTV-PyMT donors, and (iii) two patient-derived xenografts (PDX), HT17 and HT33, developed previously in our laboratory (31). […] Treatment of all groups began at the early carcinoma stage (tumor size of ˜0.3 cm) when there is minimal or absent necrosis. It was decided to work with the early-stage PyMT mouse mammary carcinoma model because it more accurately reflects clinically relevant scenarios where most women present with small tumors of <2 cm (32).
(§1) Drug Administration. The following drugs were administered in mice: Paclitaxel was given at 10 mg/Kg i.v every 5 days for 2 weeks; Doxorubicin was given at 5 mg/Kg i.v. every 5 days for 2 weeks; Cyclophosphamide was given at 120 mg/Kg i.p. only once; Rebastinib was given at 10 mg/Kg per os, every 3-4 days for 4 weeks.
(§2) Animals and Animal Procedures. MMTV-PyMT mice were bred in-house at the Albert Einstein College of Medicine (AECOM). Generation of MMTV-PyMT Mena^−/− has been described previously (28). CFP- or Dendra2-labeled mammary carcinoma cells were generated on the FVB background by co-injection of Tg(MMTV-iCRE)1jwp together with Tg(PCAG-loxp-CATstop-loxp-CFP) or Tg(loxP-stop-loxP-PDendra2)jwp plasmids, respectively, by conventional methods in the Albert Einstein Transgenic Mouse Facility. All syngeneic transplantation models were generated through orthotopic transplantation of 1 mm×1 mm tumor chunks, using tumors of 1 cm-diameter from 12-16-week old MMTV-PyMT mena−/− or mena+/+ donor mice into 5-6 week-old FVB recipients. Tumor chunks were implanted on the fourth mammary pad on the left side. The generation of the ER^− HT17 and ER^+ HT33 patient-derived xenografts has been described previously (31). Animal handling and associated procedures were approved by the Institutional Animal Care and Use Committee (IACUC). Additional information is detailed in Supplementary Methods.
Histology and TMEM Immunohistochemistry. Breast tumors and lungs were isolated, rinsed in PBS, fixed in 10% neutral buffered formalin for 48 hours, dehydrated and embedded in paraffin. Sections (5 μm) were stained with H & E or TMEM triple-stain immunohistochemistry, as previously described (3).

[2] = tested on: Tie2^hi/Vegf^hi macrophages; assay: Macrophage infiltration by multi-channel immunofluorescence (Iba1, Cd31, Tie2, Vegf); assay type: in vivo, mouse
Excerpt: The functional TMEM sites contain Tie2^hi/Vegf^hi macrophages and invasive tumor cells in perivascular regions (1), and it was independently shown that chemotherapy may promote mobilization of such Tie2^hi monocyte progenitors in primary tumors (8, 10). The Tie2^hi/Vegf^hi macrophage subpopulation was quantified herein using multi-channel immunofluorescence (IF) imaging (FIGS. 1D-F) (10, 14, 34). FIG. 1E illustrates a representative IF image of a Tie2^hi/Vegf^hi macrophage quantified using Cd31, Iba1, Vegf and Tie2 staining.
as §1, §2
Immunofluorescence. Slides were deparaffinized by melting at 60° C. in an oven equipped with a fan for 20 minutes, followed by 2× xylene treatment for 20 minutes. Slides were rehydrated and antigen retrieval was done in 1 mM EDTA (pH 8.0) or 1× citrate buffer (pH 6.0) (Diagnostic BioSystems) at 97° C. for 20 minutes in a conventional steamer. Endogenous peroxidase was blocked by using 0.3% hydrogen peroxide in water, followed by incubation of slides in a blocking buffer solution (10% FBS, 1% BSA, 0.0025% fish skin gelatin in 0.05% PBST) for 60 minutes at room temperature. The following primary antibodies were used in different combinations, depending on the experiment: chicken anti-Mena^INV (0.25 ug/mL, generated in-house in the lab of John S. Condeelis), rabbit anti-Cd31 (1:400; 77699s; Cell Signaling), rabbit anti-Vegf (1:2,000; Rb 9031-PO-A; Thermo), rat anti-Tie2 (1:100; 16-5987-82; eBioscience), rabbit anti-Iba1 (1:6,000; 019-19741; Wako), rat anti-endomucin (1:500; sc-65495; Santa Cruz), rabbit anti-TMR (1:1,000; A-6397; Life Technologies). Secondary antibody treatment was performed using HRP-conjugated antibodies, and was followed by tyramide signal amplification (TSA), using the Perkin Elmer; Opal™ 4-color Fluorescent IHC kit, according to the manufacturer's directions. All slides were imaged on the Pannoramic 250 Flash II digital whole slide scanner, using a 20×0.75NA objective lens. Image analysis was performed in ImageJ, detailed in Supplementary Methods.

[3] = tested on: TMEM; assay: Intravital imaging of TMEM-dependent vascular permeability (bursting); assay type: in vivo, mouse; settings: co-administration of rebastinib in paclitaxel-treated mice; intravital imaging
Excerpt: Paclitaxel Induces TMEM-Dependent Vascular Permeability in Breast Tumors—Given that chemotherapy treatment may affect blood vessel dynamics by inducing angiogenesis (9, 11-13, 35-37), intravital imaging (IVI) (FIG. 2A) was used to investigate whether neoadjuvant paclitaxel induces TMEM-dependent (localized) or TMEM-independent (more universal) blood vessel leakage. […] As also reported previously (1), we never observed any bursting incidents without juxtaposition to a clearly defined TMEM site. Bursting was documented by the accumulation of Dextran-TMR signal over time around an active TMEM site, and no such accumulation was observed away from TMEM (FIGS. 2B-C). The entire time-lapse of these was recorded in videos, respectively. The intensity values from all TMEM-mediated bursting incidents observed in paclitaxel-treated mice were averaged and plotted over the entire time of bursting activity (FIG. 2D), which confirmed the transient nature of paclitaxel-induced TMEM-dependent vascular permeability.
as §1
Intravital Imaging. Intravital imaging was performed using a custom-built two-laser multiphoton microscope, as previously described (57). Mice were anesthetized using 0.75-2.5% isofluorane, depilated. A skin flap procedure, previously developed (58), was performed by exposing the 4th or 5th mammary fat pad. Given the early stage of carcinoma and small tumor size, this necessitated the development of a custom fixturing technique where the exposed tissue was stabilized by affixing the edge of a 10-mm window fitted with an 8-mm clear aperture respectively with cyanoacrylate. The mouse was then placed on a fixturing plate, fitted to the respective window, on the microscope xy stage and imaging was performed in the center of the window away from the glue. The animal was placed in a heated chamber, AirTherm ATX forced air heater (WPI Inc.), maintained at physiologic temperature during the course of imaging, and supplemented with 50-100 uL of PBS per hour via the tail vein catheter. As previously described (1), three milligrams of 155-kDa TMR-dextran (Sigma) were administered via the catheter to visualize the vasculature. All images were reconstructed and analyzed in ImageJ (59), as described in Supplementary Methods.

[4] = tested on: circulating tumor cells; assay: Circulating tumor cells per mL of blood; assay type: in vivo, mouse; settings: PyMT-transplantation and HT17 xenograft
Method: as §1
Circulating Tumor Cells. Mice were anesthetized with 3.5-4.5% isoflurane, and blood was taken from the right ventricle by heart puncture, using 25G needles coated with heparin. Erythrocytes were lysed, using 10 ml of 1×RBC lysis buffer (multi-species, eBioscience). Cancer cells were quantified, as previously described (31, 60).

[5] = rebastinib in paclitaxel-treated animals
[6] = single agent vs vehicle, PyMT-transplantation and HT17 xenograft

## CNC(=O)c1cc(Oc2ccc(NC(=O)Nc3cc(C(C)(C)C)nn3-c3ccc4ncccc4c3)c(F)c2)ccn1 [rebastinib, 4-[4-[(5-tert-butyl-2-quinolin-6-ylpyrazol-3-yl)carbamoylamino]-3-fluorophenoxy]-N-methylpyridine-2-carboxamide]
[1]; [5]
  TMEM assembly: without affecting
[1]; [6]
  overall TMEM score (TMEM assembly): did not significantly affect
[2]; [5]
  number of perivascular Tie2^hi/Vegf^hi macrophages: decreased
[2]; [6]
  density of perivascular Tie2^hi/Vegf^hi macrophages: did not significantly affect
[3]
  frequency of bursting: completely abolished
  incidence of bursting: completely abolished
[4]; [5]
  circulating tumor cells: decreased circulating tumor cells to the level observed in the control animals
[4]; single agent vs vehicle
  number of CTCs (TMEM activity): reduced
